Read-outs that look alike come from different tables or passages of the source.
Experiments:
Type in all cases: cell-based, human
[1] = tested on: phospho-P65 NF-κB; test: phospho-P65 NF-κB by western blot in HepG2 cells
Method: Therefore, we tested the possibility of this link in HepG2 cells by adding rottlerin, an inhibitor of PKC-δ, and measuring the protein expression and activity levels of NF-κB with western blots. […] This confirmed the connection between TNF-α and PKC-δ in the reconstructed network (model). To determine whether PKC-δ is involved in mediating the activation of NF-κB by TNF-α, PKC-δ was inhibited by a PKC-δ specific inhibitor rottlerin. The activity of NF-κB was measured with western blots by detecting the levels of phosphorylated NF-κB p65 at serine 536 [Sakurai et al. 2003]. As shown in FIG. 6(A), the activation of NF-κB p65 was attenuated by rottlerin. […] Therefore, PKC-δ was appropriately identified by the model to be an important factor in mediating the TNF-α signaling pathway.
PKC-δ was inhibited with rottlerin (BIOMOL Research Laboratories, Plymouth Meeting, Pa.). […] After 48 hours of exposure, cells were lysated with 1× SDS sample buffer. After ultrasonication for 11-15 seconds, the suspension was centrifuged (10,000 relative centrifugal force (rcf), 5 minutes). The supernatant was run on 7.5% gradient SDS-PAGE, transferred to a nitrocellulose membrane, blocked for 1 hour at room temperature with 5% milk protein solution in Tris buffered saline with Tween 20, and exposed to monoclonal anti-phospho NF-κB (65 kDa subunit) (Cell Signaling Technology Inc., MA) at 1:2000 dilution overnight at 4° C. The blot was washed and put in rabbit anti-mouse IgG secondary antibody (1:2000 dilution in TBS-Tween) for 1 hour. The blot was washed thrice each in TBS-Tween and TBS and developed using Supersignal West Femto Substrate (Pierce Chemicals), and imaged with Bio-Rad imager.
Bcl-2 was inhibited with HA14-1 (BIOMOL Research Laboratories, Plymouth Meeting, Pa.) at 10 μM. The phospho-NF-κB p65 was detected with monoclonal anti-phospho NF-κB (65 kDa subunit) (Cell Signaling Technology Inc., Danvers, Mass., US) at 1:2000 dilution.

[2] = tested on: stearoyl-CoA desaturase (SCD); test: SCD protein expression by western blot in HepG2 cells
Method: The protein expression level of SCD in HepG2 cells cultured in control (HepG2 medium), palmitate, oleate, palmitate+oleate, mediums were measured as a function of TNF-α with western blots.

[3] = tested on: Hep G2/C3A cells
Method: Cell Culture. 1 million Hep G2/C3A cells (ATCC, Manassas, Va.) were seeded into each well of 6-well culture plate. The cells were kept in 2 mL of medium containing Dulbecco's modified Eagles medium (Invitrogen, Carlsbad, Calif.) supplemented with 10% fetal bovine serum (ATCC) and 2% Penicillin-streptomycin (Invitrogen). Cells were incubated at 37° C. and in 10% CO2 atmosphere. After cells reached confluence, the medium was replaced with 2 mL of treatment of FFA including palmitate (700 μM), oleate (700 μM), linoleate (700 μM) and TNF-α (0, 20, 100 ng/mL′)
Cytotoxicity measurement. […] Cells were washed with phosphate buffered saline (PBS) and kept in 1% Triton-X-100 in PBS for 24 h at 37° C. Cell lysate was then collected, vortexed for 15 seconds, and centrifuged at 7000 rpm for 5 minutes. Cytotoxicity detection kit (Roche Applied Science, Indianapolis, Ind.) was used to measure the LDH release. LDH released was normalized to the total LDH (released+lyzed).

[4] = tested on: Bcl-2; test: Bcl-2 protein expression by western blot in HepG2 cells
Method: Cells cultured in mediums of HepG2, Palmitate, Oleate, Palmitate (400 μM)+Oleate medium (300 μM) were lysated as described before. The protein samples were run on 10-20% gradient SDS-PAGE. Bcl-2 was probed with Bcl-2 antibody (1:1000) (Cell Signaling Technology, Inc., Danvers, Mass., US) as the primary antibody and goat anti-rabbit IgG as the second antibody at 1:1000 dilution.

[5] = tested on: PKC-δ; test: PKC-δ expression by western blot in HepG2 cells; conditions: TNF-α 20 and 100 ng/mL; control, palmitate and oleate cultures
Method: PKC-δ Inhibiting Analysis. The levels of PKC-δ in HepG2, palmitate (700 μM), oleate (700 μM) and palmitate (400 μM)+oleate medium (300 μM) with TNF-α supplementation of 0, 20, 100 ng/mL were detected with western blotting using anti-PKC-δ antibody (Santa Cruz Biotechnology, Inc., Santa Cruz, Calif., US) at 1:2000 dilution.

[6] = tested on: SCD gene expression; test: SCD gene expression by cDNA microarray in HepG2 cells; conditions: TNF-α in HepG2 cells; log 2(treatment/control)
Method: Gene expression profiling. Cells were cultured in 10 cm tissue culture plates until confluence and then exposed to different treatments. RNA was isolated with Trizol reagent. The gene expression profiling was obtained with cDNA microarray. Analyses were done at the Van Andel Institute, Grand Rapids, Mich. The protocols are available online at (http://microarray.vai.org/protocols/). There were two biological replicates for each condition and each replicate was measured with the Cy3 and Cy5 dyes.

`CCOC(=O)C1=C(N)Oc2ccc(Br)cc2C1C(C#N)C(=O)OCC` (stereo not shown) [HA14-1] was tested, and the “activation of phospho-P65 NF-κB” value ([1]; 10 μM, control, palmitate, oleate and palmitate+oleate co-supplementation cultures) was “attenuated the activation of phospho-P65 NF-κB”.
In the case of `CC(=O)N[C@@H](CS)C(=O)O` [N-acetyl cysteine], the “SCD protein expression in palmitate culture” value ([2]; co-supplementation of 10 mM) is reported as “prevented the SCD down-regulation” and the “LDH release in palmitate culture” value ([3]; co-supplementation of 10 mM) is reported as “reduced LDH release”.
`O=C1Nc2ccc3ncsc3c2/C1=C/c1cnc[nH]1` [PKR inhibitor] was tested, and the LDH release ([3]; PKR inhibitor 6 μM in control culture medium, 3% without inhibitor) was 25% and the Bcl-2 expression ([4]; 6 μM in culture medium of control) was “decreased the Bcl-2 expression”.
With `CC(C)(Oc1ccc(C2CC2(Cl)Cl)cc1)C(=O)O` (stereo not shown) [ciprofibrate] the “LDH release in palmitate culture” value ([3]; 6 hours pretreatment followed by 48 hours co-supplementation of 50 μM, palmitate culture) was “significantly decrease LDH release”.
For `CC(=O)c1c(O)c(C)c(O)c(Cc2c(O)c3c(c(C(=O)/C=C/c4ccccc4)c2O)OC(C)(C)C=C3)c1O` [rottlerin], the “TNF-α-induced activation of phospho-P65 NF-κB” value ([1]; rottlerin 5 μM, 0, 20 or 100 ng/mL TNF-α) was “this activation was attenuated” and the “increase of LDH release in the palmitate cultures” value ([3]; rottlerin added to palmitate cultures) was “up to 25%”.
For TNF-α, the SCD protein expression ([2]; TNF-α, control, oleate and co-supplementation cultures) was “decreased the expression of SCD”, the “expression of PKC-δ 41 kDa catalytically active fragment” value [5] was “increased” and the “phospho-P65 NF-κB” value ([1]; TNF-α 0, 20 or 100 ng/mL) was “activated phospho-P65 NF-κB”. For the same compound, the “gene expression of SCD” value [6] was “upregulated”, the cytotoxicity [3] was “cytotoxic” and the “LDH release in control culture” value ([3]; TNF-α in control culture) was “did not affect LDH release”. The cytotoxicity ([3]; record 2) was “cytoprotective” and the Bcl-2 expression ([4]; TNF-α 20-100 ng/mL, control, palmitate and oleate cultures) was “down-regulated”.

Reference: US20110289042A1, “Integrative Framework for Three-Stage Integrative Pathway Search” (BOARD OF TRUSTEES OF MICHAGN STATE UNIVERSITY, priority 2005, published 2011)
